Square brackets hold non-standard residues; d marks the D form. * marks the point of attachment. Pentanoyl(4-Me) = CC(C)CCC(=O)*; Aib = CC(C)(N)C(=O)O; For = O=C*
Assay: Food intake assay in overnight fasted mice
Assay type: in vivo
Conditions: 25 nmol/kg intraperitoneal
Experimental: Female NIH/Swiss mice (8-14 weeks old) were group housed with a 12:12 hour light:dark cycle. Water and a standard pelleted mouse chow diet are available ad libitum, except as noted. Animals are fasted starting at approximately 1500 hrs, 1 day prior to experiment.
The effects of treatment on food intake are expressed as % change relative to control.

Substance	cumulative food intake compared to vehicle, 30 min [%]	cumulative food intake compared to vehicle, 60 min [%]	cumulative food intake compared to vehicle, 120 min [%]	cumulative food intake compared to vehicle, 180 min [%]
ACDTATCVLGRLSQELHRLQTYPRTNTGSNTY [Compound 92]	−31	−29	−30	−27
Ac-ACNTATCVLGRLSQELHK(PEG5000)LQTYPRTNTGSNTY [Compound 47]	−5	−13	−27	
CANLSTCVLGRLSQELHRLQTYPRTNTGSNTY [Compound 19]	−25	−25	−35	−31
CNTATCVLGRLADFLHRLQTYPRTNTGSNTY [Compound 110]	−80	−72	−59	
CSALSTCVLGRLSQELHRLQTYPRTNTGSNTY [Compound 26]	−29	−36	−47	
CSNASTCVLGRLSQELHRLQTYPRTNTGSNTY [Compound 21]	9	−5	−18	−18
CSNLATCVLGRLSQELHRLQTYPRTNTGSNTY [Compound 22]	−11	−20	−31	−30
CSNLSACVLGRLSQELHRLQTYPRTNTGSNTY [Compound 23]	8	0	−19	−12
DSNLSTKVLGRLSQELHRLQTYPRTNTGSNTY [Compound 68]	−10	−13	−21	
Isocaproyl-STAVL(Aib)RLSQELRLQTYPRTNTGSGTP ({Pentanoyl(4-Me)}-STAVL[Aib]RLSQELRLQTYPRTNTGSGTP-NH2; SMILES CC(C)CCC(=O)N[C@@H](CO)C(=O)N[C@H](C(=O)N[C@@H](C)C(=O)N[C@H](C(=O)N[C@@H](CC(C)C)C(=O)NC(C)(C)C(=O)N[C@@H](CCCNC(=N)N)C(=O)N[C@@H](CC(C)C)C(=O)N[C@@H](CO)C(=O)N[C@@H](CCC(N)=O)C(=O)N[C@@H](CCC(=O)O)C(=O)N[C@@H](CC(C)C)C(=O)N[C@@H](CCCNC(=N)N)C(=O)N[C@@H](CC(C)C)C(=O)N[C@@H](CCC(N)=O)C(=O)N[C@H](C(=O)N[C@@H](Cc1ccc(O)cc1)C(=O)N1CCC[C@H]1C(=O)N[C@@H](CCCNC(=N)N)C(=O)N[C@H](C(=O)N[C@@H](CC(N)=O)C(=O)N[C@H](C(=O)NCC(=O)N[C@@H](CO)C(=O)NCC(=O)N[C@H](C(=O)N1CCC[C@H]1C(N)=O)[C@@H](C)O)[C@@H](C)O)[C@@H](C)O)[C@@H](C)O)C(C)C)[C@@H](C)O) [Compound 29]	4	−1	−25	
Isocaproyl-STAVL(Aib)[K(For)]LSQEL(Aib)[K(For)]LQTYPRTNTGSNTY ({Pentanoyl(4-Me)}-STAVL[Aib]K(For)LSQEL[Aib]K(For)LQTYPRTNTGSNTY-NH2; SMILES CC(C)CCC(=O)N[C@@H](CO)C(=O)N[C@H](C(=O)N[C@@H](C)C(=O)N[C@H](C(=O)N[C@@H](CC(C)C)C(=O)NC(C)(C)C(=O)N[C@@H](CCCCNC=O)C(=O)N[C@@H](CC(C)C)C(=O)N[C@@H](CO)C(=O)N[C@@H](CCC(N)=O)C(=O)N[C@@H](CCC(=O)O)C(=O)N[C@@H](CC(C)C)C(=O)NC(C)(C)C(=O)N[C@@H](CCCCNC=O)C(=O)N[C@@H](CC(C)C)C(=O)N[C@@H](CCC(N)=O)C(=O)N[C@H](C(=O)N[C@@H](Cc1ccc(O)cc1)C(=O)N1CCC[C@H]1C(=O)N[C@@H](CCCNC(=N)N)C(=O)N[C@H](C(=O)N[C@@H](CC(N)=O)C(=O)N[C@H](C(=O)NCC(=O)N[C@@H](CO)C(=O)N[C@@H](CC(N)=O)C(=O)N[C@H](C(=O)N[C@@H](Cc1ccc(O)cc1)C(N)=O)[C@@H](C)O)[C@@H](C)O)[C@@H](C)O)[C@@H](C)O)C(C)C)[C@@H](C)O) [Compound 31]	−11	−18	−23	
Isocaproyl-STAVL(Aib)[K(For)]LSQEL(Aib)[K(For)]LQTYPRTNVGSNTY ({Pentanoyl(4-Me)}-STAVL[Aib]K(For)LSQEL[Aib]K(For)LQTYPRTNVGSNTY-NH2; SMILES CC(C)CCC(=O)N[C@@H](CO)C(=O)N[C@H](C(=O)N[C@@H](C)C(=O)N[C@H](C(=O)N[C@@H](CC(C)C)C(=O)NC(C)(C)C(=O)N[C@@H](CCCCNC=O)C(=O)N[C@@H](CC(C)C)C(=O)N[C@@H](CO)C(=O)N[C@@H](CCC(N)=O)C(=O)N[C@@H](CCC(=O)O)C(=O)N[C@@H](CC(C)C)C(=O)NC(C)(C)C(=O)N[C@@H](CCCCNC=O)C(=O)N[C@@H](CC(C)C)C(=O)N[C@@H](CCC(N)=O)C(=O)N[C@H](C(=O)N[C@@H](Cc1ccc(O)cc1)C(=O)N1CCC[C@H]1C(=O)N[C@@H](CCCNC(=N)N)C(=O)N[C@H](C(=O)N[C@@H](CC(N)=O)C(=O)N[C@H](C(=O)NCC(=O)N[C@@H](CO)C(=O)N[C@@H](CC(N)=O)C(=O)N[C@H](C(=O)N[C@@H](Cc1ccc(O)cc1)C(N)=O)[C@@H](C)O)C(C)C)[C@@H](C)O)[C@@H](C)O)C(C)C)[C@@H](C)O) [Compound 32]	−15	−21	−31	
Isocaproyl-STAVLG[K(For)]LSQELH[K(For)]LQTYPRTNTGSGTP ({Pentanoyl(4-Me)}-STAVLGK(For)LSQELHK(For)LQTYPRTNTGSGTP-NH2; SMILES CC(C)CCC(=O)N[C@@H](CO)C(=O)N[C@H](C(=O)N[C@@H](C)C(=O)N[C@H](C(=O)N[C@@H](CC(C)C)C(=O)NCC(=O)N[C@@H](CCCCNC=O)C(=O)N[C@@H](CC(C)C)C(=O)N[C@@H](CO)C(=O)N[C@@H](CCC(N)=O)C(=O)N[C@@H](CCC(=O)O)C(=O)N[C@@H](CC(C)C)C(=O)N[C@@H](Cc1c[nH]cn1)C(=O)N[C@@H](CCCCNC=O)C(=O)N[C@@H](CC(C)C)C(=O)N[C@@H](CCC(N)=O)C(=O)N[C@H](C(=O)N[C@@H](Cc1ccc(O)cc1)C(=O)N1CCC[C@H]1C(=O)N[C@@H](CCCNC(=N)N)C(=O)N[C@H](C(=O)N[C@@H](CC(N)=O)C(=O)N[C@H](C(=O)NCC(=O)N[C@@H](CO)C(=O)NCC(=O)N[C@H](C(=O)N1CCC[C@H]1C(N)=O)[C@@H](C)O)[C@@H](C)O)[C@@H](C)O)[C@@H](C)O)C(C)C)[C@@H](C)O) [Compound 30]	−1	−2	−19	
KCDTATCVLGRLSQELHRLQTYPRTNTGSNTY [Compound 111]	−39	−37	−32	
KCDTATCVTHRLAGLLSRSQTYPRTNTGSNTY [Compound 94]	−62	−42	−36	−31
KCNAATCVLGRLSQELHRLQTYPRTNTGSNTY [Compound 17]	−42	−30	−30	−25
KCNTAACVLGRLSQELHRLQTYPRTNTGSNTY [Compound 18]	−2	−7	−16	−21
KCNTASCVLGRLSQELHRLQTYPRTNTGSNTY [Compound 36]	−34	−22	−24	−25
KCNTATCATQRLSQELHRLQTYPRTNTGSNTY [Compound 51]	−44	−39	−35	
KCNTATCATQRLSQELHRLQTYPRTNVGSNTY [Compound 52]	−29	−24	−23	
KCNTATCLLQQLQKLLQKLKQYPRTNTGSNTY [Compound 35]	−20	−16	−18	
KCNTATCMLGRYTQDFHRLQTYPRTNTGSNTY [Compound 66]	−13	−15	−28	
KCNTATCVLG(homoK)LSQELH(homoK)LQTYPRTNTGSNTY [Compound 63]	−19	−22	−28	
KCNTATCVLG(homoR)LSQELH(homoR)LQTYPRTNTGSNTY [Compound 74]	−42	−32	−31	
KCNTATCVLGKLSQELHKLQTYPRTNTGSNTY [Compound 49]	−33	−26	−25	
KCNTATCVLGRLAAALHRLQTYPRTNTGSNTY [Compound 113]	−79	−86	−55	

Reference: US8598120B2 (Amylin Pharmaceuticals, LLC, priority 2004, dated 2013)
